{"source": "patent US20250304587A1", "about": "“WEE1 INHIBITOR, PREPARATION THEREFOR AND USE THEREOF” (JIANGSU TASLY DIYI PHARMACEUTICAL CO., LTD., priority 2022, published 2025)", "key": {"[1]": {"system": "human pancreatic cancer BxPC3 cells xenograft", "assay": "Anti-tumor efficacy, BxPC3 xenograft (CDX model)", "format": "in vivo, female BALB/c nude mice", "settings": "after 40 days", "protocol": "Experimental method: BALB/c nude mice (provided by Charles River) were selected, 7-8 weeks old and weighing 19-22 g.\nThe prepared and cultured BxPC3 cells were counted, and 1×10^7 BxPC3 cells were mixed in 0.1 mL PBS solution and inoculated subcutaneously on the right wing of mice. When the cells became tumors and the average tumor volume reached 190 mm^3, they began to be grouped and administered. […] The experimental indicator was to check whether the tumor growth was inhibited. The formula for calculating the tumor volume was: V=0.5a×b^2, where a and b respectively indicated the long and short diameters of the tumor.\nThe anti-tumor effects of the compounds were evaluated by TGI (%)."}, "[2]": {"assay": "Metabolic stability in liver microsomes, rat", "format": "in vitro ADME", "protocol": "(§1) Microsomes were taken out from the −80° C. refrigerator, rapidly melted in a 37° C. water bath and placed on ice until ready to use. The test article was diluted with DMSO to prepare a 10 mM stock solution, and then diluted with acetonitrile to a 0.5 mM secondary stock solution. […] NADPH was diluted with Buffer C to a working solution of 6 mM for the starter solution. An acetonitrile solution containing an internal standard was prepared as the precipitant, and Verapamil-HCl was chosen as the internal standard at a concentration of 4 ng/ml. […] A separate plate with pointed bottom wells, noted as a precipitation plate, was added with 135 μL precipitant per well; 0 h samples were transferred to the plate after 10 min incubation and 15 μL of starter solution was added; the plate was placed on ice before centrifugation. The diluted starter solution was added in sufficient quantity to the dispensing plate to facilitate the multichannel pipette aspiration operation. The reaction was carried out on a warm incubation shaker and 15 μL of starter solution/sample is added to the plate using a multichannel pipette. The reaction was mixed with a slight shake to initiate the reaction, which was accurately timed and recorded using a timer; After the reaction time had elapsed, all the solution in the plate was aspirated using the multichannel pipette and added to the precipitation plate to terminate the reaction at that point in time. After all reactions had been terminated, the plates were shaken for ten minutes on a plate shaker at 600 rpm to precipitate the protein. The plate was centrifuged at 4° C. for 15 minutes at maximum rpm. 80 μL of supernatant was taken, 320 μL of pure water was added and mixed for LC-MS analysis."}, "[3]": {"assay": "Saturated solubility in buffer at different pH", "format": "physicochemical", "settings": "for solubility at 24 h: buffer solution, aqueous buffer, thermodynamic from solid", "protocol": "The compound was placed in a buffer solution and shaken at constant temperature for 24 h. […] Chromatographic conditions: C18 column, mobile phase A: 0.02 M potassium dihydrogen phosphate:acetonitrile=90:10, mobile phase B: acetonitrile; V: 1.0 ml/min, T: 35° C., λ: 210 nm."}, "[4]": {"assay": "Metabolic stability in liver microsomes, human", "format": "in vitro ADME", "protocol": "as §1, with “Test Example 3: Evaluation of the Metabolic Stability of Liver Microsomes (Mouse and Human) In Vitro Microsomes” for “Microsomes”"}, "plasma protein": {"system": "plasma protein", "assay": "Plasma protein binding (equilibrium dialysis), rat", "format": "in vitro ADME", "settings": "1 μM, 5 h dialysis"}, "[5]": {"assay": "Metabolic stability in liver microsomes, dog", "format": "in vitro ADME", "protocol": "as §1"}, "[6]": {"assay": "Metabolic stability in liver microsomes, mouse", "format": "in vitro ADME", "protocol": "as §1, with “Test Example 3: Evaluation of the Metabolic Stability of Liver Microsomes (Mouse and Human) In Vitro Microsomes” for “Microsomes”"}, "[7]": {"assay": "Toxicity in rats after 14 consecutive days of administration, survival", "settings": "14 days continuous administration, compared with controls"}, "CYP2C19": {"biological_target": "CYP2C19 (Homo sapiens (Human), UniProt P33261)", "sequence (P33261 whole entry, canonical isoform)": "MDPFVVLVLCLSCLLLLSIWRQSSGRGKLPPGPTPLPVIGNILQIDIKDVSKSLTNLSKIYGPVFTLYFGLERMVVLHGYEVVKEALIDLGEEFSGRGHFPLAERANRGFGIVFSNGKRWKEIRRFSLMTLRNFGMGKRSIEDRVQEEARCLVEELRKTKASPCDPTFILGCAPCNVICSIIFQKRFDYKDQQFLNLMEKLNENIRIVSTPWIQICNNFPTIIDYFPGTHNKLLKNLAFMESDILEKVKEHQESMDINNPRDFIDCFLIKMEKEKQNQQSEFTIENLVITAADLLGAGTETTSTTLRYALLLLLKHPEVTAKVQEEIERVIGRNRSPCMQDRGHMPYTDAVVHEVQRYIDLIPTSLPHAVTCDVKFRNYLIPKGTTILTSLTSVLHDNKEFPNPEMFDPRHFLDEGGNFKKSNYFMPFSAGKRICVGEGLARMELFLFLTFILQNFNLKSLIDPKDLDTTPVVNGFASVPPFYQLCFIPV", "assay": "Cytochrome P450 inhibition (fluorescence), CYP2C19", "format": "in vitro ADME", "settings": "read-out: IC50 CYP2C19", "protocol": "(§2) Enzymatic experiments were performed to quantify the inhibition of CYP450 enzyme activity of each isoform of CYP450 by small molecule inhibitors through fluorescence generated by the oxidation of the substrate by cytochrome P450. […] The Solution B composition used for the experiment was: 40 U/mL G6PDH (Sigma-aldrich, Cat #G6378). The substrate mix was 0.05× Solution A, 0.01× Solution B, 50 mM Potassium Phosphate, 0.01 mM BOMCC/0.01 mM EOMCC/0.001 mM DBOMF. […] The data were analyzed and processed using GraphPad Prism 6 software to obtain IC50 values."}, "[8]": {"assay": "Plasma protein binding (equilibrium dialysis), rat", "format": "in vitro ADME", "settings": "5 h dialysis, read-out: Plasma Protein binding (PPB) Rat (converted)"}, "CYP2C8": {"biological_target": "CYP2C8 (Homo sapiens (Human), UniProt P10632)", "sequence (P10632 whole entry)": "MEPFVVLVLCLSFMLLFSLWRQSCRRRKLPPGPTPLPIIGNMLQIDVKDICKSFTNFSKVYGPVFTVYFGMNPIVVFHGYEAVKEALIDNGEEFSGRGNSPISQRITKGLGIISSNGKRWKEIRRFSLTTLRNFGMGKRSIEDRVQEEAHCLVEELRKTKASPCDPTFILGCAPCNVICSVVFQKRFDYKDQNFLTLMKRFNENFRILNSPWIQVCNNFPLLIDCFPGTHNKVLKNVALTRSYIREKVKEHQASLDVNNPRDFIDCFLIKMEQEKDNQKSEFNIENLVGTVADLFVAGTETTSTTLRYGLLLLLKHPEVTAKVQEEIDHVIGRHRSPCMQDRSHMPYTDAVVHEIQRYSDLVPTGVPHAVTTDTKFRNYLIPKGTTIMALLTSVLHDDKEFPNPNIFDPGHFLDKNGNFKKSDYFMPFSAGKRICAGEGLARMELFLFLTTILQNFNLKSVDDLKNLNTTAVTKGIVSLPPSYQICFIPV", "assay": "Cytochrome P450 inhibition (fluorescence), CYP2C8", "format": "in vitro ADME", "settings": "read-out: IC50 CYP2C8", "protocol": "as §2"}, "CYP2D6": {"biological_target": "CYP2D6 (Homo sapiens (Human), UniProt P10635)", "sequence (P10635 whole entry)": "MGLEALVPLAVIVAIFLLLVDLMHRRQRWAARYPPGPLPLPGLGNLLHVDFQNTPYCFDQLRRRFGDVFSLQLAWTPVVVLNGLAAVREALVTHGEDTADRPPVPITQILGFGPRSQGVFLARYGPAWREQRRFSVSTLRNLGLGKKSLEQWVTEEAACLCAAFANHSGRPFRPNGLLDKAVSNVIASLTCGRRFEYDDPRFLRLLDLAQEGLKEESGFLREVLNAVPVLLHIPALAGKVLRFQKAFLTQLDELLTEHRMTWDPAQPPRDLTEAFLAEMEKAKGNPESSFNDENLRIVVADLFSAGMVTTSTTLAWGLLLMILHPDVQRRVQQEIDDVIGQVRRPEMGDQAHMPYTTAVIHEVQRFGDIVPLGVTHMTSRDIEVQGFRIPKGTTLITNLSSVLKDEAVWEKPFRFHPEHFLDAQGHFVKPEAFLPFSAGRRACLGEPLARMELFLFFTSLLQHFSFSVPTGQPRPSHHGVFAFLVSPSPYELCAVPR", "assay": "Cytochrome P450 inhibition (fluorescence), CYP2D6", "format": "in vitro ADME", "settings": "read-out: IC50 CYP2D6", "protocol": "as §2"}}, "note": "Where two headings read alike, the source gives them in different places."}
{"smiles": "[2H][C@]1(O)c2nc(-n3c4nc(Nc5ccc(N6CCC7(CCN(C)CC7)CC6)cc5)ncc4c(=O)n3CC=C)ccc2CCC12CC2", "note": "[Compound 37b]", "values": [{"measurement": "TGI", "setting": "[1]; 30 mg/kg qd", "result": 70.1, "unit": "%"}, {"measurement": "TGI", "setting": "[1]; 60 mg/kg qd", "result": 72.4, "unit": "%"}, {"measurement": "TGI", "setting": "[1]; 120 mg/kg qd", "result": 100.9, "unit": "%"}, {"measurement": "T1/2 liver microsomes Rat", "setting": "[2]", "result": ">120", "unit": "min"}, {"measurement": "Saturated solubility pH 5.0", "setting": "[3]; pH 5", "result": 0.37, "unit": "mg/mL"}, {"measurement": "Saturated solubility pH 6.5", "setting": "[3]; pH 6.5", "result": 0.37, "unit": "mg/mL"}, {"measurement": "Saturated solubility pH 7.4", "setting": "[3]; pH 7.4", "result": 0.62, "unit": "mg/mL"}, {"measurement": "T1/2 liver microsomes Human", "setting": "[4]", "result": ">120", "unit": "min"}, {"measurement": "Plasma Protein binding (PPB) Rat", "setting": "plasma protein", "result": 84.10, "unit": "%"}, {"measurement": "T1/2 liver microsomes Dog", "setting": "[5]", "result": 69.59, "unit": "min"}, {"measurement": "T1/2 liver microsomes Mouse", "setting": "[6]", "result": 37.8, "unit": "min"}, {"measurement": "Survival rate of rats (in words)", "setting": "[7]", "result": "significantly better than that in the control compound AZD1775 group and the control compound ZnC3 group"}]}
{"smiles": "C=CCn1c(=O)c2cnc(Nc3ccc(N4CCN(C)CC4)cc3)nc2n1-c1cccc(C(C)(C)O)n1", "note": "[AZD1775, reference compound]", "values": [{"measurement": "IC50", "setting": "CYP2C19", "result": "1 to 10", "unit": "µM"}, {"measurement": "TGI", "setting": "[1]; 60 mg/kg qd", "result": 57.6, "unit": "%"}, {"measurement": "half-life at 1 µM", "setting": "[2]; read-out: T1/2 liver microsomes Rat", "result": 38.1, "unit": "min"}, {"measurement": "solubility at 24 h", "setting": "[3]; pH 5.0, 37° C., read-out: Saturated solubility pH 5.0", "result": 410, "unit": "µg/mL"}, {"measurement": "solubility at 24 h", "setting": "[3]; pH 6.5, 37° C., read-out: Saturated solubility pH 6.5", "result": 50, "unit": "µg/mL"}, {"measurement": "solubility at 24 h", "setting": "[3]; pH 7.4, 37° C., read-out: Saturated solubility pH 7.4", "result": 20, "unit": "µg/mL"}, {"measurement": "half-life at 1 µM", "setting": "[4]; read-out: T1/2 liver microsomes Human", "result": 38.1, "unit": "min"}, {"measurement": "fraction unbound at 5 h, 1 µM", "setting": "[8]", "result": 0.374}, {"measurement": "half-life at 1 µM", "setting": "[5]; read-out: T1/2 liver microsomes Dog", "result": 10.8, "unit": "min"}, {"measurement": "IC50", "setting": "CYP2C8", "result": "> 10", "unit": "µM"}, {"measurement": "half-life at 1 µM", "setting": "[6]; read-out: T1/2 liver microsomes Mouse", "result": 26, "unit": "min"}, {"measurement": "IC50", "setting": "CYP2D6", "result": "> 10", "unit": "µM"}]}
